Literature values, collected in PMC8172013, “Carboxylesterase Notum Is a Druggable Target to Modulate Wnt Signaling” (Journal of Medicinal Chemistry, 2021).
Like-named read-outs stand apart in the source and are kept apart here. Blank lines part the entries; values can stand above or below the compound they belong to.

Tests used:
Notum [1] = molecular target: T1, Notum (Homo sapiens, UniProt Q6P988)
T1 sequence (Q6P988 20-496): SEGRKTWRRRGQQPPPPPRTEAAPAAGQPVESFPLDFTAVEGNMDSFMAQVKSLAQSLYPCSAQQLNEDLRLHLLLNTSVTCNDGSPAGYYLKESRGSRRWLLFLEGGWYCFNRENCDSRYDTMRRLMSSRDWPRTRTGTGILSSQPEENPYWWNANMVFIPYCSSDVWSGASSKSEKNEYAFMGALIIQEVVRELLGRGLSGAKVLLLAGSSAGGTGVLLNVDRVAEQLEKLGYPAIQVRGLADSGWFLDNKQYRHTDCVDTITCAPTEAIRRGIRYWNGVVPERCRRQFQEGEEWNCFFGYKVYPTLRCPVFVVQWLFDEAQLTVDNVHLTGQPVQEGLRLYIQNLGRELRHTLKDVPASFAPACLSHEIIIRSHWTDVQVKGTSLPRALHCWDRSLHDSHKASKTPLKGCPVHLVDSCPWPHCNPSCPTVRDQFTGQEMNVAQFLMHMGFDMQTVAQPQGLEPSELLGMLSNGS

Notum [2] = molecular target: T1, Notum; settings: TCF/LEF assay
Notum [3] = molecular target: T1, Notum; settings: OPTS assay
bone formation = test system: bone formation; parameters: method as in PMID 19072540, PMID 19932972; settings: ex vivo model of bone formation
[4] = test system: midshaft femur cortical thickness; settings: mice, 3, 10, 30 mg/kg po daily, 25 days
[5] = mouse, 10 mg/kg po

SMILES: O=C(c1ccc(Cl)cc1)N1CCN2C(=O)N(OC(=O)N3CCOc4ccccc43)C(=O)C2C1 (centres unmarked) [ABC101]
- IC50 (Notum [1]; competitive gel-based ABPP, read-out: Notum IC50): > 10000 nM
- EC50 (Notum [2]): > 5000 nM

- EC50 (Notum [2]): ~100 nM
SMILES: Cc1sc2ncnc(SCC(=O)O)c2c1Cl [Compound 37]

SMILES: Cc1cc(C(=O)O)c(C)n1C1CC1 [Compound 58]
- IC50 (Notum [3]): 6300 nM

- EC50 (Notum [2]): ~100 nM
SMILES: CCCc1sc2ncnc(SCC(=O)O)c2c1Cl [Compound 38]

SMILES: CC(C)(C)NC(=O)N1CCC[C@H]1C(=O)N1CCC(NS(=O)(=O)c2ccc(S(=O)(=O)c3ccccc3)cc2C(F)(F)F)CC1 [WAY-362692]
- increase in total bone area (bone formation): 75%

SMILES: O=C(O)CSc1ncnc2c(C3CC3)c(Cl)sc12 [Compound 26]
- midshaft femur cortical thickness [4]: increases in midshaft femur cortical thickness at all doses tested

- IC50 (Notum [3]): 4200 nM
SMILES: O=c1[nH]nc(C2CCN(c3ccc(Cl)c(C(F)(F)F)c3)C2)o1 (centres unmarked) [Compound 63]

- IC50 (Notum [3]): 190 nM
SMILES: Cc1csc2c(SCC(=O)O)ncnc12 [Compound 36]

- IC50 (Notum [3]): 2.4 nM
- plasma exposure [5]: low plasma exposure
SMILES: Cc1c(Cl)sc2ncnc(SCC(=O)N3CC(=O)N(C)C3)c12 [Compound 40]

- IC50 (Notum [1]; stated in words): sub-micromolar
SMILES: C#CCN1CCN(C(=O)ON2C(=O)C3CN(Cc4ccc(Cl)cc4)CCN3C2=O)c2ccccc21 (centres unmarked) [ABC99yne]

- IC50 (Notum [3]): 260 nM
SMILES: O=C(C1CCN(c2ccc(Cl)c(C(F)(F)F)c2)C1)N1CC(F)(F)C1 (centres unmarked) [Compound 62]

- IC50 (Notum [3]): 150 nM
SMILES: Cc1cc(C(=O)O)c(C)n1-c1cccc(C(C)C)c1F [Compound 60]
